Reference: ChEMBL document CHEMBL3085719, “Structure-based design and synthesis of potent benzothiazole inhibitors of interleukin-2 inducible T cell kinase (ITK)” (Bioorg Med Chem Lett, 2013)
Values after ≈ are worked out from the molar mass of the structure shown.

How the values were obtained:
[1] = Aqueous solubility of the compound at pH 7.4; type: physicochemical; settings: buffer
[2] = tested on: RAF proto-oncogene serine/threonine-protein kinase (Homo sapiens), P04049 [Y340D,Y341D]; test: Inhibition of RAF Y340D/Y341D double mutant (unknown origin) at 1 uM relative to control
Sequence of RAF proto-oncogene serine/threonine-protein kinase (Homo sapiens), P04049 [Y340D,Y341D] (P04049 whole entry Y340D/Y341D): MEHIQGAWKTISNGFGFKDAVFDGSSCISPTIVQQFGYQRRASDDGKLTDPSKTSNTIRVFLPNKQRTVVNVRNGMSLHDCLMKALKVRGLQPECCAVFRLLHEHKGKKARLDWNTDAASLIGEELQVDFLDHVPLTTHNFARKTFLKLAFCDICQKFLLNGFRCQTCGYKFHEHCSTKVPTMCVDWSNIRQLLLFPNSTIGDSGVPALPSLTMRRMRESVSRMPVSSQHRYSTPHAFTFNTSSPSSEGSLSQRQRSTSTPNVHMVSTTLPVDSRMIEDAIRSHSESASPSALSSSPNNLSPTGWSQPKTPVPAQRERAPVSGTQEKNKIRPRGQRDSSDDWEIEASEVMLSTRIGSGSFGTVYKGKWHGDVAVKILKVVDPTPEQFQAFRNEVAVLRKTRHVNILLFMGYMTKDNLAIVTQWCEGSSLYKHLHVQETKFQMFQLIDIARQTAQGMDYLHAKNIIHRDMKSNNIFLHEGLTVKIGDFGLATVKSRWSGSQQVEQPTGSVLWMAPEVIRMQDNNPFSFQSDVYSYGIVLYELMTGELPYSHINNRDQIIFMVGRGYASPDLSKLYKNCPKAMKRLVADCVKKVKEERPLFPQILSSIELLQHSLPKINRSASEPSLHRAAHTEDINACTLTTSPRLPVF

[3] = molecular target: T1, Muscle, skeletal receptor tyrosine-protein kinase (Homo sapiens) (UniProt O15146); test: Inhibition of MUSK (unknown origin) at 1 uM relative to control
T1 sequence (whole entry): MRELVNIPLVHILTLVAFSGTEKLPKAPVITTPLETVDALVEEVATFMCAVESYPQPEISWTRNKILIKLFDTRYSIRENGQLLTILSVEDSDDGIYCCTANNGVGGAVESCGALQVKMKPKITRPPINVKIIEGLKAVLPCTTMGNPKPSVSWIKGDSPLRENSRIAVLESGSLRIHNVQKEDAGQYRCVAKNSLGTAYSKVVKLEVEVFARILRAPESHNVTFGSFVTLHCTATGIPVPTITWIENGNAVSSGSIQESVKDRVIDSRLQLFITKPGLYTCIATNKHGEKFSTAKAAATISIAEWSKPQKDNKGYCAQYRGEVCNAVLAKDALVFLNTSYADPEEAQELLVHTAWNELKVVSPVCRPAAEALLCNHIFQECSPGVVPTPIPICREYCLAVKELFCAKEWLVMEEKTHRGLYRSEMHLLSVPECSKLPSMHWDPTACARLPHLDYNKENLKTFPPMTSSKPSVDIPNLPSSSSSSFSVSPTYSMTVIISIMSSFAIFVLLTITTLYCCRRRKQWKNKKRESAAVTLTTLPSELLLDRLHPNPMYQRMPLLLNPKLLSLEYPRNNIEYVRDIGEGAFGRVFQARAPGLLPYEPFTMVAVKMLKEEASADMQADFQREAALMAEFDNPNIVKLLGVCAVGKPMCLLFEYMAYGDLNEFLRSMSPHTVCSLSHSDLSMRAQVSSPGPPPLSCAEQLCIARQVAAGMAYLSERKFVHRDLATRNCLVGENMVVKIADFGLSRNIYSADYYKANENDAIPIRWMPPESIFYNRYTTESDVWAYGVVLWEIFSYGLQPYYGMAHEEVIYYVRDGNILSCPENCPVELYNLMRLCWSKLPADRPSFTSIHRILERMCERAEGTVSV

[4] = molecular target: Tyrosine-protein kinase ABL1 (Homo sapiens) (UniProt P00519); test: Inhibition of ABL (unknown origin) at 1 uM relative to control
Sequence of Tyrosine-protein kinase ABL1 (Homo sapiens) (P00519 whole entry): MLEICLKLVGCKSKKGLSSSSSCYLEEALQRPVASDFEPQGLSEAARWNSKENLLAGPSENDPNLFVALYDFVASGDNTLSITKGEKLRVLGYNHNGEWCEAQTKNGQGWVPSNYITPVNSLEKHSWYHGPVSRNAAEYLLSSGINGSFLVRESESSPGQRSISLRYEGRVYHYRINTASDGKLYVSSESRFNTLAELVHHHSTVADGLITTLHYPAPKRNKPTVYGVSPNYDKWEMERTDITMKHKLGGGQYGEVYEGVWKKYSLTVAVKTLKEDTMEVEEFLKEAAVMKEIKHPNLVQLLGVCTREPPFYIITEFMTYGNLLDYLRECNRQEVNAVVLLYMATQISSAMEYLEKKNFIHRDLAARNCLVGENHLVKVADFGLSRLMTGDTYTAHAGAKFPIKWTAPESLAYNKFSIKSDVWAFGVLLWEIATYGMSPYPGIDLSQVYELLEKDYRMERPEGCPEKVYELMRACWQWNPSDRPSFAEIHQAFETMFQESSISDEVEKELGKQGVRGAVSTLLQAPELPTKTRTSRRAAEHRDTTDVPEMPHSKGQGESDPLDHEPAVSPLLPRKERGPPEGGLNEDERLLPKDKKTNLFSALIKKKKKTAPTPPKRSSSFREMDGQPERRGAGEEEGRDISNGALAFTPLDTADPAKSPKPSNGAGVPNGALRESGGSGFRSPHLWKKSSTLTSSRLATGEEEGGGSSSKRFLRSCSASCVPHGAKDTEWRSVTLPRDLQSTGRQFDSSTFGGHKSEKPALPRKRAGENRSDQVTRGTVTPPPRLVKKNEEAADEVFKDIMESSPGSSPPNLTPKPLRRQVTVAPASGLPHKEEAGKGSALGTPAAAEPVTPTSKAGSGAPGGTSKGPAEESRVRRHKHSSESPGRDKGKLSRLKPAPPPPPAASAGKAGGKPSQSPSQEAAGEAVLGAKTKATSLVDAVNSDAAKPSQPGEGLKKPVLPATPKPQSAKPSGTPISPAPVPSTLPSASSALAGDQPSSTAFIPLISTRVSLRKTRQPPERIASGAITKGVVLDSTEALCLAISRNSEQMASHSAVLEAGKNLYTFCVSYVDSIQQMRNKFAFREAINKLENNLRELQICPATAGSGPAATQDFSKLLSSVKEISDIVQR

[5] = molecular target: T2, Tyrosine-protein kinase ITK/TSK (Homo sapiens, UniProt Q08881); test: Inhibition of ITK in human Jurkat cells assessed as inhibition of PLC-gamma1 phosphorylation by immuno-detection assay; type: cell-based
T2 sequence (Q08881 whole entry): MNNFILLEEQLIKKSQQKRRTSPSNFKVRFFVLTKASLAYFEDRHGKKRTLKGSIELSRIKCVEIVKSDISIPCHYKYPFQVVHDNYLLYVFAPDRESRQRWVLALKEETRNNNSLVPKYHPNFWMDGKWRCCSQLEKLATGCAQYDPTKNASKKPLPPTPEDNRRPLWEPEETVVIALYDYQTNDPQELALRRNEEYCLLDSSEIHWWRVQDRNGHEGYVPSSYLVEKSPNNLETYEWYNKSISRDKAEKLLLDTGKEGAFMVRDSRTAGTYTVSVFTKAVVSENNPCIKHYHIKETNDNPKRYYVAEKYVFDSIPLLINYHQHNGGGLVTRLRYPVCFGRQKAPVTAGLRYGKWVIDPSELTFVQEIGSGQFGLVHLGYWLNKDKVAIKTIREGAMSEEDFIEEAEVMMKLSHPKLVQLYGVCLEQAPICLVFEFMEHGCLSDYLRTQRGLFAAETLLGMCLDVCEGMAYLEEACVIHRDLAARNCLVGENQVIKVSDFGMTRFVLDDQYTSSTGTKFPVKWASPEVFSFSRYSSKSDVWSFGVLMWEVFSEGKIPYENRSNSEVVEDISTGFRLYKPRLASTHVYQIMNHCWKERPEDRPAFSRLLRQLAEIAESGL

[6] = molecular target: T2, Tyrosine-protein kinase ITK/TSK; test: Inhibition of full length GST-tagged ITK (unknown origin) using Ac-EFPIYDFLPAKKK-NH2 as substrate after 35 mins by LC/MS analysis
[7] = Volume of distribution at steady state in rat at 1 mg/kg, iv; type: ADME, organism-based; set-up: dose 1 mg/kg, route intravenous; settings: in vivo, read-out: Vdss
[8] = molecular target: Tyrosine-protein kinase Yes (Homo sapiens) (UniProt P07947); test: Inhibition of YES (unknown origin) at 0.1 uM relative to control
Sequence of Tyrosine-protein kinase Yes (Homo sapiens) (P07947 2-543 limits assumed): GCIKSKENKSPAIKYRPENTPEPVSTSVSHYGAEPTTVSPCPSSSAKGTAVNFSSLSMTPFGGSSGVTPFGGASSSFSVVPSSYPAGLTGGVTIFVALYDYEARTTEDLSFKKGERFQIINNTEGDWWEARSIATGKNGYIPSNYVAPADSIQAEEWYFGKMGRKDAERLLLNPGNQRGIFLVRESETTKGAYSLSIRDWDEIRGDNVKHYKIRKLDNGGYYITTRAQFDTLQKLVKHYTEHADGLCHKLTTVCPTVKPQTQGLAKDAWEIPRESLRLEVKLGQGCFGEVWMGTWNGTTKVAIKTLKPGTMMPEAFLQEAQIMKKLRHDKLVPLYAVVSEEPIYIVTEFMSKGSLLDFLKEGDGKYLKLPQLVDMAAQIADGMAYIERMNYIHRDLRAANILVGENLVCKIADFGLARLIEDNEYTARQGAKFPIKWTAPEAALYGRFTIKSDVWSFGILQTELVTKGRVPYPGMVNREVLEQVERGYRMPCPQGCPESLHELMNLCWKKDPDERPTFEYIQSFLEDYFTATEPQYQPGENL

[9] = molecular target: T3, Tyrosine-protein kinase TXK (Homo sapiens) (UniProt P42681); test: Inhibition of TXK (unknown origin) at 0.1 uM relative to control
T3 sequence (whole entry): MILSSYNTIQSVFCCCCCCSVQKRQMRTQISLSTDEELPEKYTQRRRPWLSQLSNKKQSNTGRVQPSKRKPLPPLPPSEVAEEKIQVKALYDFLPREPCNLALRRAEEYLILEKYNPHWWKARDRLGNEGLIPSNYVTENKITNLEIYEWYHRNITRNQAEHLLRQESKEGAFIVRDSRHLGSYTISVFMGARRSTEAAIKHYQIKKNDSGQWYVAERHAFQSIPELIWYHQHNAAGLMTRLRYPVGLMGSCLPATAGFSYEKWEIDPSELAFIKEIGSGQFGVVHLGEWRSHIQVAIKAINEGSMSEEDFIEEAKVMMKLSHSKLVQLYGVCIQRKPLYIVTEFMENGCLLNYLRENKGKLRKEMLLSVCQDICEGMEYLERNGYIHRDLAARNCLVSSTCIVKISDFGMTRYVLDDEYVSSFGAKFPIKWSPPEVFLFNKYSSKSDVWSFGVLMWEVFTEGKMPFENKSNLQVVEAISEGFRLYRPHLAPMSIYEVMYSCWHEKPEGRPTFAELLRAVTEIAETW

[10] = molecular target: Serine/threonine-protein kinase PAK 4 (Homo sapiens) (UniProt O96013); test: Inhibition of PAK4 (unknown origin) at 0.1 uM relative to control
Sequence of Serine/threonine-protein kinase PAK 4 (Homo sapiens) (O96013 whole entry, looked up): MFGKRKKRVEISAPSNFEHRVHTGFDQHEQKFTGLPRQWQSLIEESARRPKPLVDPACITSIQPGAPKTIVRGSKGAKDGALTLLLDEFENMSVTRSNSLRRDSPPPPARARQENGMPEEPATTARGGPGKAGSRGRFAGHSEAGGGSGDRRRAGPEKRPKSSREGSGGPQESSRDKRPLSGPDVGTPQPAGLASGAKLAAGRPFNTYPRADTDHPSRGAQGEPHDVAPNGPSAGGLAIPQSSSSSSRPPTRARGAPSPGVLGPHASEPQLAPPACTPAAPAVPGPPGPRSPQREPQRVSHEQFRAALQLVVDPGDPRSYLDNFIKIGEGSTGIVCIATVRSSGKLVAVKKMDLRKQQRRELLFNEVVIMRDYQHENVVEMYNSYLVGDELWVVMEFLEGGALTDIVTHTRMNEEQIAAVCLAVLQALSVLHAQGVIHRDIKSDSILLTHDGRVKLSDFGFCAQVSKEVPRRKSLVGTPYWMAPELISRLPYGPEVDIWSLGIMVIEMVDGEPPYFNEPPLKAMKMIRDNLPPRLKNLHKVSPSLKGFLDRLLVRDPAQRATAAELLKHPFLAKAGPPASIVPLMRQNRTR

[11] = molecular target: Receptor-type tyrosine-protein kinase FLT3 (Homo sapiens) (UniProt P36888); test: Inhibition of FLT3 (unknown origin) at 0.1 uM relative to control
Sequence of Receptor-type tyrosine-protein kinase FLT3 (Homo sapiens) (P36888 whole entry): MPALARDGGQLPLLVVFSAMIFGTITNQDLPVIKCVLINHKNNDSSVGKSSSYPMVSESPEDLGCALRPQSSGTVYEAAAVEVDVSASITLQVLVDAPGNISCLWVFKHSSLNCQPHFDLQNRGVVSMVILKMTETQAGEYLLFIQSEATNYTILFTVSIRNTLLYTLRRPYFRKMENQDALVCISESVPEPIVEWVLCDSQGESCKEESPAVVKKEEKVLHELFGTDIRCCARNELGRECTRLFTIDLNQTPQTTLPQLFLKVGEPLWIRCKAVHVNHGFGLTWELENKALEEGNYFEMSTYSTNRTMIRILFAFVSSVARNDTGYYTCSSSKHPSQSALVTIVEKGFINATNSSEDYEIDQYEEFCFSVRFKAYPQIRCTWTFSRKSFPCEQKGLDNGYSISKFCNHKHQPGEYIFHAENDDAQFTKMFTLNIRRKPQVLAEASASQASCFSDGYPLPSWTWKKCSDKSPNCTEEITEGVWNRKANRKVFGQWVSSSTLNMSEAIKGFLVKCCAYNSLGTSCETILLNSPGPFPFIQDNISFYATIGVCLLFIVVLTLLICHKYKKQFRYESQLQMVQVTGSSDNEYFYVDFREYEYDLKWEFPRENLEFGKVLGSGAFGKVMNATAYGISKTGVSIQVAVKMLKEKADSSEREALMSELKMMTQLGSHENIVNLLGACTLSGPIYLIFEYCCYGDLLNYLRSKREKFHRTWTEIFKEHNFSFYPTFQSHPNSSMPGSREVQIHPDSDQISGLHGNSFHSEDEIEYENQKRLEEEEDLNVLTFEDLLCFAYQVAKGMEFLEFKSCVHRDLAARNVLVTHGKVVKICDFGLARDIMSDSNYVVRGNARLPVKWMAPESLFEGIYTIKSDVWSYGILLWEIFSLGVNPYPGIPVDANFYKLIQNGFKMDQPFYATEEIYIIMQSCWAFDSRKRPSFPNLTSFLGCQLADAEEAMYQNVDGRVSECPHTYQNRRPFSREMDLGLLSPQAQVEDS

[12] = molecular target: Vascular endothelial growth factor receptor 2 (Homo sapiens) (UniProt P35968); test: Inhibition of KDR (unknown origin) at 0.1 uM relative to control
[13] = molecular target: Casein kinase I isoform alpha (Homo sapiens) (UniProt P48729); test: Inhibition of CK1alpha (unknown origin) at 0.1 uM relative to control
Sequence of Casein kinase I isoform alpha (Homo sapiens) (P48729 2-337 limits assumed): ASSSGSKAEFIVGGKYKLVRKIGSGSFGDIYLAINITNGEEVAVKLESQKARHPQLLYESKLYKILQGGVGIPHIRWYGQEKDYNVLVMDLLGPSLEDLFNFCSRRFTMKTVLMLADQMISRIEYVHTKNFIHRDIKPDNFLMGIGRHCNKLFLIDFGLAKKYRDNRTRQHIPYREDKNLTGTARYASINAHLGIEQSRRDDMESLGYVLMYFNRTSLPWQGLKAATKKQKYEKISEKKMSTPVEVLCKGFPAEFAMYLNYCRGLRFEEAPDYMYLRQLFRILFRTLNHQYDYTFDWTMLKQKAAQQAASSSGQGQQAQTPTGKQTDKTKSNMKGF

[14] = molecular target: Cyclin-dependent kinase 2 (Homo sapiens) (UniProt P24941); test: Inhibition of CDK2 (unknown origin) at 0.1 uM relative to control
[15] = molecular target: Tyrosine-protein kinase ABL1 (Homo sapiens) (UniProt P00519); test: Inhibition of ABL (unknown origin) at 0.1 uM relative to control
[16] = Half life in rat at 5 mg/kg, po; type: ADME, organism-based; set-up: dose 5 mg/kg, route oral; settings: in vivo
[17] = Half life in rat at 1 mg/kg, iv; type: ADME, organism-based; set-up: dose 1 mg/kg, route intravenous; settings: in vivo
[18] = Clearance in rat at 1 mg/kg, iv; type: ADME, organism-based; set-up: dose 1 mg/kg, route intravenous; settings: in vivo
[19] = Oral bioavailability in rat at 5 mg/kg; type: ADME, organism-based; settings: in vivo
[20] = AUC (last) in rat at 5 mg/kg, po; type: ADME, organism-based; set-up: time 0 - last, dose 5 mg/kg, route oral; settings: plasma
[21] = AUC (last) in rat at 1 mg/kg, iv; type: ADME, organism-based; set-up: time 0 - last, dose 1 mg/kg, route intravenous; settings: plasma
[22] = Lipophilicity, log D of the compound at pH 7.4; settings: buffer
[23] = molecular target: Tyrosine-protein kinase Lck (Homo sapiens, UniProt P06239); test: Inhibition of LCK (unknown origin)
Sequence of Tyrosine-protein kinase Lck (P06239 whole entry): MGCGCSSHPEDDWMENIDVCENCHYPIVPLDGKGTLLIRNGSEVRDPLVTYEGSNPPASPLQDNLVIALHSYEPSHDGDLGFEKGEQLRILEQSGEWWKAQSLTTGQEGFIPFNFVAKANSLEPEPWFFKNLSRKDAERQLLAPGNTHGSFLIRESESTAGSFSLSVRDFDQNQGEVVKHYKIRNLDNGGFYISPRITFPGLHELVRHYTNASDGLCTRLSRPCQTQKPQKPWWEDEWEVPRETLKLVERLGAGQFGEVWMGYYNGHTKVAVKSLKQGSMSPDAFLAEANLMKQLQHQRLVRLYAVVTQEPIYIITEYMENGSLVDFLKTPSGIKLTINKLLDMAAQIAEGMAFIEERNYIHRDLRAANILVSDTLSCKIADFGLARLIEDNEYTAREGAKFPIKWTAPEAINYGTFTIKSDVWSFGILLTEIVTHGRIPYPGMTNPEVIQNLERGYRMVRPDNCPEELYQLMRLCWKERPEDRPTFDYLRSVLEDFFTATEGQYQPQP

SMILES | solubility [1] [µM] | IC50 [5] [nM] | Ki [6] [nM] | logD [22] | other results
COc1ccc([C@H]2C[C@@H]2C(=O)Nc2nc3ccc(-c4cncc(CO)c4)cc3s2)cc1 (racemic) |  | > 20000 | 5.3 |  | inhibition [2]: > 50%; inhibition [3]: > 50%; inhibition [4]: > 50%
CN(C)Cc1ccc([C@H]2C[C@@H]2C(=O)Nc2nc3ccc(-c4cn[nH]c4)cc3s2)cc1 | < 1 | 91 | 0.7 | 3 | Vd [7]: 3.2 L/kg; inhibition [8]: > 50%; inhibition [9]: > 50%; inhibition [10]: > 50%; inhibition [11]: > 50%; inhibition [12]: > 50%; inhibition [13]: > 50%; inhibition [14]: > 50%; inhibition [15]: > 50%; half-life [16]: 3 h; half-life [17]: 3.4 h; clearance [18]: 12 mL/min/kg; bioavailability [19]: 35%; AUC(0-t) [20]: 4.8 µM·h; AUC(0-t) [21]: 2.8 µM·h; Ki [23]: 55 nM
CN(C)Cc1ccc([C@H]2C[C@@H]2C(=O)Nc2nc3ccc(-c4cccnc4)cc3s2)cc1 (racemic) | < 1 |  |  | 2.7 | 
CN(C)Cc1cccc([C@H]2C[C@@H]2C(=O)Nc2nc3ccc(-c4cn[nH]c4)cc3s2)c1 (racemic) | 11 (≈ 4.59 µg/mL) |  |  | 2.8 | 
CN(C)Cc1ccc(C2CC2C(=O)Nc2nc3ccc(-c4cn[nH]c4)cc3s2)cc1 (racemic) | < 1 | 89 | 0.6 | 3 | Ki [23]: 46 nM
CCN(CC)Cc1cc([C@H]2C[C@@H]2C(=O)Nc2nc3ccc(-c4cn[nH]c4)cc3s2)ccc1OC | 180 (≈ 85.6 µg/mL) |  |  | 2.6 | 

More lines, main results first:

solubility [1] [µM] | IC50 [5] [nM] | Ki [6] [nM] | logD [22] | SMILES | other results
< 2 |  |  |  | COc1ccc2nc(NC(=O)[C@H]3C[C@@H]3c3ccccc3)sc2c1 (racemic) | 
< 1 |  |  | 4.4 | COc1ccc(C2CC2C(=O)Nc2nc3ccc(-c4cn[nH]c4)cc3s2)cc1 (racemic) | 
11 (≈ 3.9 µg/mL) |  |  |  | COc1ccc([C@H]2C[C@@H]2C(=O)Nc2nc3ccc(OC)cc3s2)cc1 (racemic) | 
< 1 |  |  | 4.4 | COc1ccc([C@H]2C[C@@H]2C(=O)Nc2nc3ccc(-c4cn[nH]c4)cc3s2)cc1 | 
